In publication PMC12772033, “A drought stress-responsive metabolite malate modulates stomatal responses through G-protein-dependent pathway in grapevine and Arabidopsis” (Molecular Horticulture, 2026):
Where a name gives a salt, the structure may show the parent alone.

Assays:
[1] = molecular target: T1, VvSLAC1 (Vitis vinifera, UniProt A0ABY9BHH9, F440A); assay: two-electrode voltage clamp, ramp mode, Xenopus oocytes; assay type: cell-based; conditions: activator of open-gate mutant, pH 5.6, 1 mM LaCl3, ramp +60 to -120 mV
T1 construct: gene VitviT2T_002114; cDNA in pNB1u, cRNA expressed in Xenopus laevis oocytes; no tag mentioned; model trimmed 1-141 and 507-553
T1 sequence (A0ABY9BHH9 entry or part of it F440A): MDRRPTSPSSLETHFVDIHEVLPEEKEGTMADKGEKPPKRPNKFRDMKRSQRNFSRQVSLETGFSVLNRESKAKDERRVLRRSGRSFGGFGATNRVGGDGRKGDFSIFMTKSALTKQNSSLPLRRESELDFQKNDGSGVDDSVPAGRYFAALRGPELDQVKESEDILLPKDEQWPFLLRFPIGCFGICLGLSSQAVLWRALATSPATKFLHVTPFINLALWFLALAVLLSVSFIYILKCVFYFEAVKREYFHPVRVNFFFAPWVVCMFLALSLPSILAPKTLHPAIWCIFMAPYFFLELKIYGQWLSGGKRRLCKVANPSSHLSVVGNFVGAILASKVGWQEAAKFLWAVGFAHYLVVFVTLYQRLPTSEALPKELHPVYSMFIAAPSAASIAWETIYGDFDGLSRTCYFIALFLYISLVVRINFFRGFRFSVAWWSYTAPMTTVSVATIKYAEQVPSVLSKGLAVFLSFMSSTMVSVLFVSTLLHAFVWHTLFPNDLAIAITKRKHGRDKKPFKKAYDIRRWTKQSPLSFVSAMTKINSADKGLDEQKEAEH

[2] = molecular target: T1, VvSLAC1; assay: two-electrode voltage clamp, Xenopus oocytes; assay type: cell-based; conditions: activator of open-gate mutant
[3] = pH 5.6, 1 mM LaCl3, -120 mV gap-free and I-V steps

Row | Compound | relative current at 10 mM [2, 3] | other results
1 | O=C(O)CC(O)(CC(=O)O)C(=O)O [Cit, citrate] |  | current at 10 mM [1]: The metabolites other than monocarboxylates activated VvSLAC1F440A.
2 | O=C(O)/C=C/C(=O)O [Fum, fumarate] | Dicarboxylates, however, promoted the activity of VvSLAC1F440A. | 
3 | O=C(O)C[C@H](O)C(=O)O [Mal, malate] | Dicarboxylates, however, promoted the activity of VvSLAC1F440A. | 
4 | O=C(O)CC(=O)C(=O)O [Oxal, oxalacetate] |  | relative current at 10 mM ([2]; pH 5.6, 1 mM LaCl3, -120 mV gap-free): Dicarboxylates, however, promoted the activity of VvSLAC1F440A.
